# Data published in patent US8198307B2, “Imidazole derivatives having aryl piperidine substituent, method for preparation thereof and pharmaceutical compositions containing same” (Korea Research Institute of Chemical Technology, priority 2007, dated 2012).
# Molecular target: T1, MCH R1 (melanine-concentrating hormone receptor-1) (Homo sapiens, UniProt Q99705)
# T1 construct: purchased Euroscreen, Gosselies, Belgium
# Assay: Inhibitory effects on MCH R1 binding (Eu-MCH time-resolved fluorescence binding assay)
# Details: not given
# Method: First, MCH R1 (melanine-concentrating hormone receptor-1; Euroscreen, Gosselies, Belgium), 1 μM Europium-labeled melanine-concentrating hormone (Eu-MCH, PerkinElmer, Turku, Finland) and 1 mM melanine-concentrating hormone (MCH, #070-47, Phoenix, Belmont Calif., USA) were kept at 4° C. for ready use. 1 μM Eu-MCH and 1 mM MCH were diluted with an experimental solution (25 mM HEPES pH 7.4, 5 mM MgCl2, 1 mM CaCl2 and 0.5% (w/w) BSA) to 8 nM (final reaction concentration: 2 nM) and 2 μM (final reaction concentration: 0.5 μM), respectively. The compounds prepared in the Examples (“Test compounds”) were dissolved in the experimental solution in concentration of 4 nM to 40 μM (final reaction concentration: 1 nM to 10 μM). MCH R1 (200 assays/vial) was homogeneously dispersed in the experimental solution.
# Then, 100 μl/well of the following reaction mixture was added to the wells of a microplate (Multiwell 96 well filter plates PN5020, Pall Co., Ann Arbor, Mich., USA) equipped with a filter paper, with an 8-channel pipette (multi 8-channel, Eppendorf, Hamburg, Germany). Specifically, to the wells of a non-specific binding control group, 25 μl of Eu-MCH, 50 μl of MCH R1 and 25 μl of MCH were added. Further, 25 μl of the experimental solution supplemented with 10% (w/w) of DMSO, 25 μl of Eu-MCH and 50 μl of MCH R1 were added to the wells of a total binding control group, while 25 μl of the test compounds, 25 μl Eu-MCH and 50 μl of MCH R1 were added to the wells of an experimental group. Subsequently, the microplate was shaken gently for 15 seconds and kept at room temperature for 90 minutes to allow the reaction to take place. Then, the plate was washed with a microplate washer (EMBLA, Molecular Devices) by washing three times with 300 μl of a washing solution (25 mM HEPES pH 7.4, 5 mM MgCl2, 1 mM CaCl2) to remove the residual unreacted Eu-MCH. Moisture was removed from the bottom of the wells and 150 μl of dissociation solution (DELFIA Enhancement solution, PerkinElmer, Turku, Finland) was added to each well, followed by keeping the plate at room temperature for 2 to 4 hours. Subsequently, time-resolved fluorescence (TRF) values were measured with a multilabel counter (Victor2, PerkinElmer, Turku, Finland) (emission wave length: 615 nm, excitation wave length: 340 nm). The inhibition rate based on the time-resolved fluorescence data was calculated using the following Equation (I). Inhibition rate of time-resolved fluorescence (%)=[(Average TRF value of the total binding group−Time-resolved fluorescence value of the test compound)/(Average TRF value of the total binding group−Average TRF value of the non-specific binding group)]×100 (I)
# T1 sequence (Q99705 whole entry, species assumed): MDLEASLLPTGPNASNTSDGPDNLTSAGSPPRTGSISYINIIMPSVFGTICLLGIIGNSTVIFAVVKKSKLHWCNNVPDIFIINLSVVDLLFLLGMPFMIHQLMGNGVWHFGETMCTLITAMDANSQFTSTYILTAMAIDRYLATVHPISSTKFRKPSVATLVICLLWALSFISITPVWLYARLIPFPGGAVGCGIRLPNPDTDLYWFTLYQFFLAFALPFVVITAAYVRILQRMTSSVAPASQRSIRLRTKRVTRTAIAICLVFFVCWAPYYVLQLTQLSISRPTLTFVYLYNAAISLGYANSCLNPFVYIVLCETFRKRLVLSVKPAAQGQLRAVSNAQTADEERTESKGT
row,SMILES,IC50
1,"CC(=O)Nc1cccc(C2CCN(CCCn3c(-c4ccc(Cl)cc4)nc4ccc([N+](=O)[O-])cc43)CC2)c1 [Example 42, 2-(4-chlorophenyl)-1-{3-[4-(3-acetylaminophenyl)piperidin-1-yl]propyl}-6-nitro-1H-benzimidazole]",111 nM

# Same assay, conditions: concentration inhibiting the binding of MCH (Eu-MCH, 2 nM) to MCH R1 by 50% in vitro; TRF readout; test range 1 nM to 10 μM; read-out: IC50
row,IC50,SMILES
1,77 nM,"CC(=O)Nc1cccc(C2CCN(CCCn3c(-c4cc(F)c(F)c(F)c4F)nc4ccccc43)CC2)c1 [Example 44, 2-(2,3,4,5-tetrafluorophenyl)-1-{3-[4-(3-acetylaminophenyl)piperidin-1-yl]propyl}-1H-benzimidazole]"
2,3 nM,"CC(=O)Nc1cccc(C2CCN(CCCn3c(-c4ccc(C(F)(F)F)cc4)nc4ccccc43)CC2)c1 [Example 45, 2-(4-trifluoromethylphenyl)-1-{3-[4-(3-acetylaminophenyl)piperidin-1-yl]propyl}-1H-benzimidazole]"
3,8 nM,"CC(=O)Nc1cccc(C2CCN(CCCn3c(-c4ccc(-c5ccccc5)cc4)nc4ccccc43)CC2)c1 [Example 46, 2-(4-biphenyl)-1-{3-[4-(3-acetylaminophenyl)piperidin-1-yl]propyl}-1H-benzimidazole]"
4,42 nM,"CC(=O)Nc1cccc(C2CCN(CCCn3c(-c4ccc(Oc5ccccc5)cc4)nc4ccccc43)CC2)c1 [Example 47, 2-(4-phenoxyphenyl)-1-{3-[4-(3-acetylaminophenyl)piperidin-1-yl]propyl}-1H-benzimidazole]"
5,56 nM,"CC(=O)Nc1cccc(C2CCN(CCCn3c(-c4ccc(F)cc4)nc4ccccc43)CC2)c1 [Example 48, 2-(4-fluorophenyl)-1-{3-[4-(3-acetylaminophenyl)piperidin-1-yl]propyl}-1H-benzimidazole]"
6,197 nM,"CC(=O)Nc1cccc(C2CCN(CCCn3c(-c4ccc(Cl)cc4)nc4cc(C)cc(C)c43)CC2)c1 [Example 49, 2-(4-chlorophenyl)-1-{3-[4-(3-acetylaminophenyl)piperidin-1-yl]propyl}-5,7-dimethyl-1H-benzimidazole]"
7,4 nM,"CC(=O)Nc1cccc(C2CCN(CCCn3c(-c4ccc(F)c(F)c4)nc4ccccc43)CC2)c1 [Example 50, 2-(3,4-difluorophenyl)-1-{3-[4-(3-acetylaminophenyl)piperidin-1-yl]propyl}-1H-benzimidazole]"
8,16 nM,"CC(=O)Nc1cccc(C2CCN(CCCn3c(-c4ccc(C#N)cc4)nc4ccccc43)CC2)c1 [Example 51, 2-(4-cyanophenyl)-1-{3-[4-(3-acetylaminophenyl)piperidin-1-yl]propyl}-1H-benzimidazole]"
9,15 nM,"CC(=O)Nc1cccc(C2CCN(CCCn3c(-c4cccc(C#N)c4)nc4ccccc43)CC2)c1 [Example 52, 2-(3-cyanophenyl)-1-{3-[4-(3-acetylaminophenyl)piperidin-1-yl]propyl}-1H-benzimidazole]"
10,1 nM,"CC(=O)Nc1cccc(C2CCN(CCCn3c(-c4ccc(Cl)cc4F)nc4ccccc43)CC2)c1 [Example 53, 2-(4-chloro-2-fluorophenyl)-1-{3-[4-(3-acetylaminophenyl)piperidin-1-yl]propyl}-1H-benzimidazole]"
11,4 nM,"CC(=O)Nc1cccc(C2CCN(CCCn3c(-c4ccc(F)cc4Cl)nc4ccccc43)CC2)c1 [Example 54, 2-(2-chloro-4-fluorophenyl)-1-{3-[4-(3-acetylaminophenyl)piperidin-1-yl]propyl}-1H-benzimidazole]"
12,8 nM,"CC(=O)Nc1cccc(C2CCN(CCCn3c(-c4cccc([N+](=O)[O-])c4)nc4ccccc43)CC2)c1 [Example 55, 2-(3-nitrophenyl)-1-{3-[4-(3-acetylaminophenyl)piperidin-1-yl]propyl}-1H-benzimidazole]"
13,66 nM,"COc1ccc(Cl)cc1-c1nc2ccccc2n1CCCN1CCC(c2cccc(NC(C)=O)c2)CC1 [Example 56, 2-(5-chloro-2-methoxyphenyl)-1-{3-[4-(3-acetylaminophenyl)piperidin-1-yl]propyl}-1H-benzimidazole]"
14,37 nM,"CC(=O)Nc1cccc(C2CCN(CCCn3c(-c4ccc([N+](=O)[O-])cc4Cl)nc4ccccc43)CC2)c1 [Example 57, 2-(2-chloro-4-nitrophenyl)-1-{3-[4-(3-acetylaminophenyl)piperidin-1-yl]propyl}-1H-benzimidazole]"
15,22 nM,"COc1ccc(-c2nc3ccccc3n2CCCN2CCC(c3cccc(NC(C)=O)c3)CC2)c(OC)c1 [Example 58, 2-(2,4-dimethoxyphenyl)-1-{3-[4-(3-acetylaminophenyl)piperidin-1-yl]propyl}-1H-benzimidazole]"
16,239 nM,"CC(=O)Nc1cccc(C2CCN(CCCn3c(-c4ccc(Cl)cc4F)nc4cc(C)c(C)cc43)CC2)c1 [Example 59, 2-(4-chloro-2-fluorophenyl)-1-{3-[4-(3-acetylaminophenyl)piperidin-1-yl]propyl}-5,6-dimethyl-1H-benzimidazole]"

# The remaining lines, values behind:
row,SMILES,IC50
1,"CC(=O)Nc1cccc(C2CCN(CCCn3c(-c4ccc(Cl)cc4)nc4ccc(F)cc43)CC2)c1 [Example 31, 2-(4-chlorophenyl)-1-{3-[4-(3-acetylaminophenyl)piperidin-1-yl]propyl}-6-fluoro-1H-benzimidazole]",11 nM
2,"CC(=O)Nc1cccc(C2CCN(CCCn3c(-c4ccccc4)nc4ccc([N+](=O)[O-])cc43)CC2)c1 [Example 32, 2-phenyl-1-{3-[4-(3-acetylaminophenyl)piperidin-1-yl]propyl}-6-nitro-1H-benzimidazole]",10 nM
3,"CC(=O)Nc1cccc(C2CCN(CCCn3c(-c4ccccc4F)nc4ccc(Cl)cc43)CC2)c1 [Example 33, 2-(2-fluorophenyl)-1-{3-[4-(3-acetylaminophenyl)piperidin-1-yl]propyl}-6-chloro-1H-benzimidazole]",148 nM
4,"CC(=O)Nc1cccc(C2CCN(CCCn3c(-c4cccc(F)c4)nc4ccc(Cl)cc43)CC2)c1 [Example 34, 2-(3-fluorophenyl)-1-{3-[4-(3-acetylaminophenyl)piperidin-1-yl]propyl}-6-chloro-1H-benzimidazole]",8 nM
5,"CC(=O)Nc1cccc(C2CCN(CCCn3c(-c4cccc(Cl)c4)nc4ccc(Cl)cc43)CC2)c1 [Example 35, 2-(3-chlorophenyl)-1-{3-[4-(3-acetylaminophenyl)piperidin-1-yl]propyl}-6-chloro-1H-benzimidazole]",7 nM
6,"CC(=O)Nc1cccc(C2CCN(CCCn3c(-c4ccc(Cl)cc4)nc4ccc(Br)cc43)CC2)c1 [Example 36, 2-(4-chlorophenyl)-1-{3-[4-(3-acetylaminophenyl)piperidin-1-yl]propyl}-6-bromo-1H-benzimidazole]",17 nM
7,"CC(=O)Nc1cccc(C2CCN(CCCn3c(-c4ccccc4Cl)nc4cc(C)c(C)cc43)CC2)c1 [Example 37, 2-(2-chlorophenyl)-1-{3-[4-(3-acetylaminophenyl)piperidin-1-yl]propyl}-5,6-dimethyl-1H-benzimidazole]",39 nM
8,"CC(=O)Nc1cccc(C2CCN(CCCn3c(-c4cccc(Cl)c4)nc4cc(C)c(C)cc43)CC2)c1 [Example 38, 2-(3-chlorophenyl)-1-{3-[4-(3-acetylaminophenyl)piperidin-1-yl]propyl}-5,6-dimethyl-1H-benzimidazole]",3 nM
9,"CC(=O)Nc1cccc(C2CCN(CCCn3c(-c4ccc(Cl)cc4)nc4c(C)c(C)ccc43)CC2)c1 [Example 39, 2-(4-chlorophenyl)-1-{3-[4-(3-acetylaminophenyl)piperidin-1-yl]propyl}-4,5-dimethyl-1H-benzimidazole]",7 nM
10,"CC(=O)Nc1cccc(C2CCN(CCCn3c(-c4ccccc4Cl)nc4ccc([N+](=O)[O-])cc43)CC2)c1 [Example 40, 2-(2-chlorophenyl)-1-{3-[4-(3-acetylaminophenyl)piperidin-1-yl]propyl}-6-nitro-1H-benzimidazole]",82 nM
11,"CC(=O)Nc1cccc(C2CCN(CCCn3c(-c4cccc(Cl)c4)nc4ccc([N+](=O)[O-])cc43)CC2)c1 [Example 41, 2-(3-chlorophenyl)-1-{3-[4-(3-acetylaminophenyl)piperidin-1-yl]propyl}-6-nitro-1H-benzimidazole]",635 nM
12,"CC(=O)Nc1cccc(C2CCN(CCCn3c(-c4ccccc4)nc4ccc(Br)cc43)CC2)c1 [Example 43, 2-phenyl-1-{3-[4-(3-acetylaminophenyl)piperidin-1-yl]propyl}-6-bromo-1H-benzimidazole]",3 nM
